The source of these data is ChEMBL document CHEMBL1140514, “Some new acyclic nucleotide analogues as antiviral prodrugs: synthesis and bioactivities in vitro” (Bioorg Med Chem Lett, 2007).

Some results are limits rather than exact numbers.

Series [1] concerns Human immunodeficiency virus 1. Nature of the series: Antiviral activity against HIV1 3B in MT4 cells after 4 days by MTT assay. It counts as functional. On the technique in general: Tetrazolium assays rely on reduction of a dye to a coloured formazan, in cell work by metabolically active cells.
Another series concerns HepG2. Kind of series: Cytotoxicity against human HepG2 cells after 9 days by MTT assay. It counts as functional, cell-based. The settings on record: HepG2, 216 h.
In a further series the test system is Hepatitis B virus. Kind of series: Antiviral activity against Hepatitis B virus infected human HepG2 cells after 9 days by MTT assay. It counts as functional, organism-based. The following applies: HepG2, 216 h.
Series [2] can be described thus: Therapeutic index, Ratio of TC50 for human HepG2 cells to IC50 for HBV-infected human HepG2 cells. It counts as cell-based. The following applies: HepG2 cells (TC50) and HBV-infected HepG2 cells (IC50).
Series [3] can be described thus: Cytotoxicity against MT4 cells at 10 ug/ml after 4 days by MTT assay. The format is cell-based. The settings on record: human, read-out: Inhibition.

Usually IC50 stands for the concentration that inhibits the measured activity by half. The low end stands for greater potency, the high end for weaker potency.

`Nc1ncnc2c1ncn2CCOCP(=O)(OCOC(=O)OC1CCCC1)OCOC(=O)OC1CCCC1.O=C(O)/C=C/C(=O)O` showed a TC50 in series [1] of 22.1 µM. The figures for the IC50 with HepG2 and in the series on Hepatitis B virus were 3.51 µM and 2.46 µM, respectively.

With `C[C@H](Cn1cnc2c(N)ncnc21)OCP(=O)(OCOC(=O)OC1CCCCC1)OCOC(=O)OC1CCCCC1.O=C(O)/C=C/C(=O)O`, the selectivity ratio in series [2] was determined as 15.6. Also, the TC50 in series [1] came to 92.8 µM. Also, the IC50 stood at 17.5 µM in the series on HepG2 and 5.94 µM in the series on Hepatitis B virus.

As to `Nc1ncnc2c1ncn2CCOCP(=O)(O)OCOC(=O)OCc1ccccc1.O=C(O)/C=C/C(=O)O`, in series [3], the cytotoxicity at 96 h, 10 ug/ml turned out to be 9%. The selectivity ratio in series [2] stood at 13.7. Moreover, in series [1], the TC50 is recorded as 0.59 10^3uM. Besides, the IC50 with HepG2 is above 30 µM; with Hepatitis B virus, 43 µM.

As for `C=CCOC(=O)OCOP(=O)(O)COCCn1cnc2c(N)ncnc21.O=C(O)/C=C/C(=O)O`, in series [1], the TC50 is on record as 0.67 10^3uM. In addition, the results for the IC50 in the series with HepG2 and with Hepatitis B virus were 23.7 µM and 10.6 µM, respectively.

Regarding `C=CCOC(=O)OCOP(=O)(COCCn1cnc2c(N)ncnc21)OCOC(=O)OCC=C.O=C(O)/C=C/C(=O)O`, the cytotoxicity at 96 h, 10 ug/ml in series [3] came to 22.8%. In series [1], this compound registered a TC50 of 24.6 µM. Moreover, the IC50 was above 30 µM in the series on HepG2 and 8.2 µM in the series on Hepatitis B virus.

Consider `Nc1ncnc2c1ncn2CCOCP(=O)(OCOC(=O)OCc1ccccc1)OCOC(=O)OCc1ccccc1.O=C(O)/C=C/C(=O)O`, for which the cytotoxicity at 96 h, 10 ug/ml in series [3] came to 24.9%. Moreover, in series [2], the selectivity ratio is 12.3. In series [1], this compound displayed a TC50 of 26.5 µM. Moreover, the IC50 is above 30 µM in the series on HepG2 and 2.15 µM with Hepatitis B virus.

`Nc1ncnc2c1ncn2CCOCP(=O)(OCOC(=O)OC1CCCCC1)OCOC(=O)OC1CCCCC1.O=C(O)/C=C/C(=O)O`: in series [2], the selectivity ratio stood at 11.9. In series [1], this compound registered a TC50 of 63.2 µM. In addition, the figures for the IC50 with HepG2 and with Hepatitis B virus were 23.1 µM and 5.33 µM, respectively.

In the case of `C=CCOC(=O)OCOP(=O)(CO[C@H](C)Cn1cnc2c(N)ncnc21)OCOC(=O)OCC=C.O=C(O)/C=C/C(=O)O`, the TC50 in series [1] is 30.9 µM. For the same compound, the IC50 is 1.61 µM in the series on HepG2 and 7.98 µM in the series with Hepatitis B virus.

On to `C[C@H](Cn1cnc2c(N)ncnc21)OCP(=O)(OCOC(=O)OCc1ccccc1)OCOC(=O)OCc1ccccc1.O=C(O)/C=C/C(=O)O`, for which the cytotoxicity at 96 h, 10 ug/ml in series [3] was 28.1%. Further, the selectivity ratio in series [2] turned out to be 12.7. In series [1], this compound registered a TC50 of 70.1 µM. Besides, the results for the IC50 in the series with HepG2 and in the series on Hepatitis B virus were above 30 µM and 5.5 µM, respectively.

On to `C[C@H](Cn1cnc2c(N)ncnc21)OCP(=O)(OCOC(=O)OC1CCCC1)OCOC(=O)OC1CCCC1.O=C(O)/C=C/C(=O)O`, for which the cytotoxicity at 96 h, 10 ug/ml in series [3] amounted to 25.5%. Further, the TC50 in series [1] turned out to be 80.2 µM. Besides, the IC50 in the series with HepG2 was above 30 µM; in the series with Hepatitis B virus it was 7.2 µM.

In the series on Hepatitis B virus, `Nc1ncnc2c1ncn2CCOCP(=O)(O)O` [ADEFOVIR] registered a half-inhibitory concentration (IC50) of 42.1 µM.

The compound `Nc1nc(=O)n([C@@H]2CS[C@H](CO)O2)cc1F` [EMTRICITABINE] came in with an IC50 in the series on HepG2 of 27.7 µM.

Regarding `C[C@H](Cn1cnc2c(N)ncnc21)OCP(=O)(O)O` [TENOFOVIR ANHYDROUS], in series [2], the selectivity ratio is 31.4. For the same compound, the TC50 in series [1] is on record as 0.39 10^3uM. In the series with Hepatitis B virus, this compound gave an IC50 of 12.3 µM.

As to `CC(C)OC(=O)OCOP(=O)(CO[C@H](C)Cn1cnc2c(N)ncnc21)OCOC(=O)OC(C)C.O=C(O)/C=C/C(=O)O` [TENOFOVIR DISOPROXIL FUMARATE], the selectivity ratio in series [2] worked out at 10.8. The compound further returned a TC50 in series [1] of 55.2 µM. For the same compound, the IC50 in the series on HepG2 was 2.31 µM; in the series on Hepatitis B virus, 5.1 µM.
